Laboratory results as given in patent US6906237B2, “Vivo assay for anti angiogenic compounds” (priority 2001, dated 2005).
Entries after “also recorded” stand apart in the source; their conditions may differ.

B1: endostatin: recombinant human endostatin, 22kD protein expressed by HEK293 cells stably transfected with plasmid pGT60hEndo (HEK293endo) (protein, UniProt P39060 1572-1754, looked up)
Endostatin: HSHRDFQPVLHLVALNSPLSGGMRGIRGADFQCFQQARAVGLAGTFRAFLSSRLQDLYSIVRRADRAAVPIVNLKDELLFPSWEALFSGSEGPLKPGARIFSFDGKDVLRHPTWPQKSVWHGSDPNGRRLTESYCETWRTEAPSATGQASSLLGGRLLGQSAASCHHAYIVLCIENSFMTASK
modifications: Endostatin

How the values were obtained:
[1] = system: HDMEC-GT derived microvessels; experiment: SCID mice xenografting of HDMEC-GT in Matrigel with pro-angiogenic factors; human vessel density by human type IV collagen micromorphometry; format: in vivo, human cells in SCID mice; settings: for human vessel density (human type IV collagen micromorphometry), result in words: VEGF 2 μg/ml or FGF-2 150 ng/ml in Matrigel with HDMEC-GT, two weeks after implantation, versus controls
Protocol: (§1) This procedure is based on a modification of the mouse angiogenesis model previously described^41. Two-three week old male or female SCID mice (Taconic, Germantown, N.Y.) were used as hosts for all implants. Primary HDMEC and HDMEC-T were harvested, washed twice and re-suspended in serum-free EGM-2 basal medium at the concentration of 1×10^5/μl. Ten μl of cells were mixed with 0.5 ml of Matrigel on ice and the mixture was implanted in the ventral midline thoracic tissue of each mouse by subcutaneous injection using a #25 needle. Up to three separate injections could be performed on a single mouse. For some experiments, recombinant human VEGF165 (2 μg/ml) (R&D systems, Minneapolis, Minn.) or bovine FGF-2 (150 ng/ml) (R&D systems, Minneapolis, Minn.) were added to the mixture. When tumor cells (HT1080 and 293, ATCC) or primary human dermal fibroblasts^38 were injected, the procedure remained the same except basal D-MEM medium replaced EGM-2.
(§2) Matrigel implants were removed at 1, 2, 4 and 6 wk following xenografting, fixed in 10% buffered formalin overnight, paraffin-embedded and sectioned. H&E stained thin sections were prepared at Pan-insular Histopathology laboratory (Los Gatos, Calif.). For immunofluoresence, thin sections were deparaffinized and antigens retrieved in 10 mM citric acid (pH 6.0) by microwaving sections for 2×7 min. Sections were then incubated with anti-human type IV collagen IgG (Sigma, St. Louis, Mo.) primary antibody, followed by washing and Cy-3 conjugated secondary IgG according to standard protocols. […] For micromorphometry, 5 separate 20× fields were randomly selected per tissue section and the number of annular structures were counted and averaged. Unless specifically stated otherwise, 3 different sections were viewed per implant and replicate implants were grafted for each experimental condition (FIGS. 3 and 6).

[2] = system: host murine blood vessels; experiment: Host vessel invasion of Matrigel implants in SCID mice without human EC; format: in vivo; settings: FGF-2 alone in Matrigel, no HDMEC
Protocol: as §1
Matrigel implants were removed at 1, 2, 4 and 6 wk following xenografting, fixed in 10% buffered formalin overnight, paraffin-embedded and sectioned. H&E stained thin sections were prepared at Pan-insular Histopathology laboratory (Los Gatos, Calif.). […] For micromorphometry, 5 separate 20× fields were randomly selected per tissue section and the number of annular structures were counted and averaged. […]

[3] = system: HDMEC-GT derived microvessels; experiment: Endostatin blocking experiments: HDMEC-GT co-implanted with endostatin cDNA-transfected HEK293 cells in Matrigel in SCID mice; format: in vivo, human cells in SCID mice; settings: 1:10 ratio HEK293endo to HDMEC-GT, implants removed after one and two weeks, versus sham-transfected HEK293lacZ
Protocol: as §2
For digital analysis of eGFP fluorescence images we used a novel algorithm (Moss Filter™) to determine the total amount of vascularization in each implant section. This filter determines whether or not each pixel is part of the fluorescently-labeled vascular region. The filter converts the original (8-bit) digital image into a binary image. Pixel values equal to 1 indicate vascularization, whereas zero values indicate no vascularization. The total amount of vascularization in each implant section is obtained by summing all the values in the binary image.
Inhibition of in vivo vessel formation by local delivery of human endostatin was accomplished as follows: The plasmid pGT60hEndo, expressing recombinant human endostatin (InvivoGen, San Diego, Calif.), was stably transfected into human embryonic kidney (HEK293) cell line by calcium phosphate transfection (Invitrogen, Carlsbad, Calif.). […] HEK293 cells expressing lacZ served as a control for both Western blots and grafting experiments. The cell implantation procedure was the same as that described above except that 1×10^5 (or 10^4 or 10^3) transfected HEK were mixed with HDMEC-GT immediately prior to implantation. Grafts were examined at both one week and two after injection and sections were analyzed by both micromorphometry and eGFP as previously described.

[4] = listed as recombinant human endostatin

Molecule	human vessel density (human type IV collagen micromorphometry), result in words [1]	host vessel invasion of Matrigel implants [2]	increased vessel density relative to controls ([1]; VEGF 2 μg/ml mixed with HDMEC-GT and Matrigel, two weeks after grafting, human type IV collagen micromorphometry)	vessel density by micromorphometry (human type IV collagen staining) [3]	vessel density by total fluorescence intensity extracted from binary images of eGFP (Moss Filter) [3]	vessel density by micromorphometry (human type IV collagen staining) [3, 4]	vessel density by total fluorescence intensity extracted from binary images of eGFP (Moss Filter) [3, 4]
FGF-2: bovine FGF-2 (R&D systems), known pro-angiogenic factor	statistically increased human vessel density	stimulated; also recorded: marked host vessel invasion	–	–	–	–	–
VEGF	increased vessel density; also recorded: did not demonstrate statistical significance	–	20-30%	–	–	–	–
B1	–	–	–	statistically significant loss of vessel density	statistically significant loss of vessel density	decreased microvessel formation	decreased microvessel formation
